What all share (assay type): in vivo
Test [1] has as its system CT26 colon cancer tumor. As to the kind of experiment: Chemotherapy sensitization with smart hydrogel in colon cancer subcutaneous tumor mouse model (Example 3). Conditions: CT26 tumor-bearing BALB/c mice, compared with control group; CpG-ODN 15 μg per mouse intratumoral; oxaliplatin 3 mg/kg i.v. days 7, 10, 13, 16. The protocol: The mice were treated on day 7 after the inoculation of CT26 colon cancer tumor. Tumor-bearing BALB/c mice were randomly divided into the following 6 groups (6 mice in each group): Group 1: control group (untreated); Group 2: intratumoral injection of sodium alginate and intravenous injection of oxaliplatin (ALG+OxPt); Group 3: intratumoral injection of mixture of sodium alginate with CpG-ODN (ALG/CpG); Group 4: intratumoral injection of mixture of sodium alginate and CpG-ODN and intravenous injection of oxaliplatin (ALG/CpG+OxPt); Group 5: intratumoral injection of smart sodium alginate hydrogel preparation (ALG-Aapt/CpG) capable of ATP-responsive slow release of immunoadjuvant obtained in Step (5) of Example 2; Group 6: intratumoral injection of smart sodium alginate hydrogel preparation capable of ATP-responsive slow release of immunoadjuvant obtained in Step (5) of Example 2, and intravenous injection of oxaliplatin (ALG-Aapt/CpG+OxPt). The final concentration of sodium alginate in each treatment group was 10 mg/mL, the volume of intratumoral injection was 25 μL, and the dose of CpG-ODN per mouse was 15 μg. On days 7, 10, 13 and 16, oxaliplatin was administered intravenously at a dose of 3 mg/kg body weight. After respective treatments for the mice, the tumor growth was measured.

Test [2] concerns CT26 colon cancer tumor. The test is described as follows: Chemotherapy sensitization in mouse colon cancer subcutaneous tumor model (Example 1). The note with it: CT26 tumor-bearing BALB/c mice, compared with control group; intratumoral 25 μL, CpG-ODN 15 μg per mouse; oxaliplatin 3 mg/kg i.v. days 7, 10, 13, 16. The text has this: The sodium alginate hydrogel radiotherapy/chemotherapy sensitizing agent encapsulating the immunoadjuvant CpG-ODN was used for chemotherapy sensitization in a mouse colon cancer subcutaneous tumor model. The treatment was started on day 7 after inoculation of the mouse CT26 colon cancer tumor. Tumor-bearing BALB/c mice were randomly divided into the following 4 groups (6 mice in each group): Group 1: control group (untreated); Group 2: intratumoral injection of sodium alginate and intravenous injection of oxaliplatin (ALG+OxPt);
Group 3: intratumoral injection of sodium alginate hydrogel radiotherapy/chemotherapy sensitizing agent encapsulating the immunoadjuvant CpG-ODN (ALG/CpG); Group 4: intratumoral injection of sodium alginate hydrogel radiotherapy/chemotherapy sensitizing agent encapsulating the immunoadjuvant CpG-ODN, and intravenous injection of oxaliplatin (ALG/CpG+OxPt). The final concentration of sodium alginate in each treatment group was 10 mg/mL, the volume of intratumoral injection was 25 μL, and the dose of CpG-ODN per mouse was 15 μg. On days 7, 10, 13 and 16, oxaliplatin was administered intravenously at a dose of 3 mg/kg body weight. After respective treatments for the mice, the tumor growth was measured.

In test [3] the test system is CT26 colon cancer tumor. The test is described as follows: Immune response evaluation in chemotherapy sensitization, colon cancer subcutaneous tumor mouse model (Example 4). Conditions: day 5 after treatment, CT26 BALB/c mice, compared with control group. As for the experimental part: The mice were treated on day 7 after the inoculation of CT26 colon cancer tumor. Tumor-bearing BALB/c mice were randomly divided into the following 4 groups (6 mice in each group): Group 1: control group (untreated); Group 2: intratumoral injection of sodium alginate and intravenous injection of oxaliplatin (OxPt); Group 3: intratumoral injection of smart sodium alginate hydrogel preparation (ALG-A-Apt/CpG) capable of ATP-responsive slow release of immunoadjuvant obtained in Step (5) of Example 2; Group 4: intratumoral injection of smart sodium alginate hydrogel preparation capable of ATP-responsive slow release of immunoadjuvant obtained in Step (5) of Example 2 and intravenous injection of oxaliplatin (ALG-A-Apt/CpG@OxPt). The final concentration of sodium alginate in each treatment group was 10 mg/mL, the volume of intratumoral injection was 25 μL, and the dose of CpG-ODN per mouse was 15 μg. On days 7, 10, 13 and 16, oxaliplatin was administered intravenously at a dose of 3 mg/kg body weight. On day 5 after the treatment, mice in each group were sacrificed, and the maturity of dendritic cells in inguinal lymph nodes, percentage of CD8 positive T cells in the tumor, and ratio of CD8 positive T cells to regulatory T cells was identified.

Data on 1 substance can be found in patent publication US20240148874A1, “IMMUNOADJUVANT-BASED HYDROGEL COMPOSITION AND USE THEREOF” (SOOCHOW UNIVERSITY, priority 2020, published 2024).

With oxaliplatin [ALG+OxPt], the tumor growth entry in the test on CT26 colon cancer tumor [1] was “only partially inhibited”; in the test on CT26 colon cancer tumor [2], “significantly inhibited”. Besides, the “percentage of CD8 positive T cells in the tumor” value in the test on CT26 colon cancer tumor [3] is on record as “not significantly improved”. Also, the “ratio of CD8 positive T cells to regulatory T cells” value in the test on CT26 colon cancer tumor [3] was “not significantly improved”. Further, the “maturity of dendritic cells (DC) in lymph nodes” value in the test on CT26 colon cancer tumor [3] (inguinal lymph nodes) is “not significantly improved”.
